Laboratory results as given in article PMC7912740 (Pharmaceutics, 2021).
Read-outs that look alike come from different tables or passages of the source.

What was measured:
Format in all cases: biochemical
[1] = molecular target: T1, UGT1A6 (Homo sapiens, UniProt P19224); assay: N-acetylserotonin glucuronidation in human liver microsomes, cocktail, LC-MS/MS; conditions: 1 µM N-acetylserotonin (probe cocktail set B), 5 mM UDPGA, 10 mM MgCl2, alamethicin, pH 7.4, 37 °C, 60 min
T1 construct: native enzyme in ultrapooled human liver microsomes (Corning 452161), read by N-acetylserotonin glucuronidation
T1 sequence (P19224 27-532): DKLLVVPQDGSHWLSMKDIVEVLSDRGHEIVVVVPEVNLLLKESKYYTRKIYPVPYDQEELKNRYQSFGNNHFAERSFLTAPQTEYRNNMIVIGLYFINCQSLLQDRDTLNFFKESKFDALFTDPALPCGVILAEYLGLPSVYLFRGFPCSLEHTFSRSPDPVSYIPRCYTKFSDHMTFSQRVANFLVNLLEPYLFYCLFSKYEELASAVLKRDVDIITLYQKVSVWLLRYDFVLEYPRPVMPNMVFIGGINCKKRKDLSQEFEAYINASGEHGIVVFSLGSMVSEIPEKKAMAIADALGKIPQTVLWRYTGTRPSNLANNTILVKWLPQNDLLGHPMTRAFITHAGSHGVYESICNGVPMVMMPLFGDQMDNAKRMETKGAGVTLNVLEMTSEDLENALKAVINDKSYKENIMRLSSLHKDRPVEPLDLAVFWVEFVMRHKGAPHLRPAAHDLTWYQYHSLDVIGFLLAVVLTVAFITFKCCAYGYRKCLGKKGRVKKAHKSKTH

[2] = molecular target: T2, UGT2B7 (Homo sapiens, UniProt P16662); assay: naloxone 3-beta-D-glucuronidation in human liver microsomes, cocktail, LC-MS/MS; conditions: 1 µM naloxone (probe cocktail set B), 5 mM UDPGA, 10 mM MgCl2, alamethicin, pH 7.4, 37 °C, 60 min; read-out: IC50 (μM) / Eudesmin
T2 construct: native enzyme in ultrapooled human liver microsomes (Corning 452161), read by naloxone 3-glucuronidation
T2 sequence (P16662 24-529): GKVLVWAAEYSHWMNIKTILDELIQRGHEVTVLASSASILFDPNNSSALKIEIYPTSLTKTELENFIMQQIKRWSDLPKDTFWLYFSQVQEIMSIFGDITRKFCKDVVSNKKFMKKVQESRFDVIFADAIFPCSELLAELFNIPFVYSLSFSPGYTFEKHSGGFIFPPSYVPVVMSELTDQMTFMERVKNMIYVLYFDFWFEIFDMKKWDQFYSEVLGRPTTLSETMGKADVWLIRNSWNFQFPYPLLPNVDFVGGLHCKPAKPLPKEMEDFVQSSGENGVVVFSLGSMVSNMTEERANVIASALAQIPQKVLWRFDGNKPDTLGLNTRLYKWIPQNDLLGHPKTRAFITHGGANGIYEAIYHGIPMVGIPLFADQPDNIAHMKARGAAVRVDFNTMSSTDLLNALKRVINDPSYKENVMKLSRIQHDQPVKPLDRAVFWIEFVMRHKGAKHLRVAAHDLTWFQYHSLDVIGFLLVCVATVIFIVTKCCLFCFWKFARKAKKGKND

[3] = molecular target: T3, UGT1A3 (Homo sapiens, UniProt P35503); assay: chenodeoxycholic acid 24-acyl-glucuronidation in human liver microsomes, cocktail, LC-MS/MS; conditions: 2 µM chenodeoxycholic acid (probe cocktail set A), 5 mM UDPGA, 10 mM MgCl2, alamethicin, pH 7.4, 37 °C, 60 min
T3 construct: native enzyme in ultrapooled human liver microsomes (Corning 452161), read by chenodeoxycholic acid 24-acyl-glucuronidation
T3 sequence (P35503 29-534): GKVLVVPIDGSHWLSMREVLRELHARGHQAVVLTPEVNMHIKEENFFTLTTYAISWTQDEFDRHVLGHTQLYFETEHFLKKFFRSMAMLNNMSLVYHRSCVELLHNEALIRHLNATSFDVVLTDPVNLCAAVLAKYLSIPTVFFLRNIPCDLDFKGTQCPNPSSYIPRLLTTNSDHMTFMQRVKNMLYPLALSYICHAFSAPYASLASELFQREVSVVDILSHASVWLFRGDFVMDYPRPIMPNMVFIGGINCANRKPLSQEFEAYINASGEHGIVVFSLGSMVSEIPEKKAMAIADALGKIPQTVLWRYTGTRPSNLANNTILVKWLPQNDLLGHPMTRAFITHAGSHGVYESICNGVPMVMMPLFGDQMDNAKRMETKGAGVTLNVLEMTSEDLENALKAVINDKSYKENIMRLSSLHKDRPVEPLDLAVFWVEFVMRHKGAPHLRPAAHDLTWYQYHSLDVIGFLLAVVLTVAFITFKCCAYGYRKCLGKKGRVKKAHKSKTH

[4] = molecular target: T3, UGT1A3; assay: chenodeoxycholic acid 24-acyl-glucuronidation in human liver microsomes, LC-MS/MS, Dixon plot; conditions: chenodeoxycholic acid 1–10 µM, 5 mM UDPGA, 10 mM MgCl2, alamethicin, pH 7.4, 30 min; competitive
[5] = molecular target: T4, UGT1A4 (Homo sapiens, UniProt P22310); assay: trifluoperazine N-glucuronidation in human liver microsomes, cocktail, LC-MS/MS; conditions: 0.5 µM trifluoperazine (probe cocktail set A), 5 mM UDPGA, 10 mM MgCl2, alamethicin, pH 7.4, 37 °C, 60 min; read-out: IC50 (μM) / Eudesmin
T4 construct: native enzyme in ultrapooled human liver microsomes (Corning 452161), read by trifluoperazine N-glucuronidation
T4 sequence (P22310 29-534): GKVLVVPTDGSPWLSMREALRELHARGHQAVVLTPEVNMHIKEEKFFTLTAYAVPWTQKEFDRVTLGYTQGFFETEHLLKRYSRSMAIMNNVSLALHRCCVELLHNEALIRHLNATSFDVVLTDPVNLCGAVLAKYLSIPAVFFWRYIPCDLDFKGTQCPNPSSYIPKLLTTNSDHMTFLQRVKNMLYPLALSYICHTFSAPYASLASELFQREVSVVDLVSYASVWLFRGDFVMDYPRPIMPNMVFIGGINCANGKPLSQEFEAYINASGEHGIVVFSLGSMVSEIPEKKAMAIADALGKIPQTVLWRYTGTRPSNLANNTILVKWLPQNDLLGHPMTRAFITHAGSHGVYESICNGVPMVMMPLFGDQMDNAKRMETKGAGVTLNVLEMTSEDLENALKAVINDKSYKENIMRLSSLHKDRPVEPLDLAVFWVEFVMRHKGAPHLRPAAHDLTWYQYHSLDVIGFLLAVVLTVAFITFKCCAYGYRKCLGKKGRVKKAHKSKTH

[6] = molecular target: T5, UGT1A1 (Homo sapiens, UniProt P22309); assay: SN-38 glucuronidation in human liver microsomes, LC-MS/MS, Dixon plot; conditions: SN-38 0.2–2 µM, 5 mM UDPGA, 10 mM MgCl2, alamethicin, pH 7.4, 30 min; noncompetitive
T5 construct: native enzyme in ultrapooled human liver microsomes (Corning 452161), read by SN-38 glucuronidation
T5 sequence (P22309 26-533): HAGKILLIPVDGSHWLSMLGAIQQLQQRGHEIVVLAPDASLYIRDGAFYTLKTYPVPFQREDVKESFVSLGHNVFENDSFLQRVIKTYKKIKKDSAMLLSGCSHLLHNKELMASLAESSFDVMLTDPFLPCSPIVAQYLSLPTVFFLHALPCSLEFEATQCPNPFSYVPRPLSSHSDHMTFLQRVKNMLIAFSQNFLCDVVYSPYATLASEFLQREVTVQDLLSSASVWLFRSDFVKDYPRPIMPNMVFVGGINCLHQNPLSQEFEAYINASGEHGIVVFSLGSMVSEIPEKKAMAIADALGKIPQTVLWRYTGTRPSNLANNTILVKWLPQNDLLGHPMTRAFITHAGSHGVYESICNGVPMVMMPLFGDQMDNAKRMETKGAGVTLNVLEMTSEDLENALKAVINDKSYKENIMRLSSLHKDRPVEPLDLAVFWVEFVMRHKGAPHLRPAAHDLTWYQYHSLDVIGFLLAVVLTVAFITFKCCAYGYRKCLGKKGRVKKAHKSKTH

[7] = molecular target: T5, UGT1A1; assay: SN-38 glucuronidation in human liver microsomes, cocktail, LC-MS/MS; conditions: 0.5 µM SN-38 (probe cocktail set A), 5 mM UDPGA, 10 mM MgCl2, alamethicin, pH 7.4, 37 °C, 60 min
[8] = molecular target: T6, UGT1A9 (Homo sapiens, UniProt O60656); assay: mycophenolic acid glucuronidation in human liver microsomes, cocktail, LC-MS/MS; conditions: 0.2 µM mycophenolic acid (probe cocktail set B), 5 mM UDPGA, 10 mM MgCl2, alamethicin, pH 7.4, 37 °C, 60 min
T6 construct: native enzyme in ultrapooled human liver microsomes (Corning 452161), read by mycophenolic acid glucuronidation
T6 sequence (O60656 26-530): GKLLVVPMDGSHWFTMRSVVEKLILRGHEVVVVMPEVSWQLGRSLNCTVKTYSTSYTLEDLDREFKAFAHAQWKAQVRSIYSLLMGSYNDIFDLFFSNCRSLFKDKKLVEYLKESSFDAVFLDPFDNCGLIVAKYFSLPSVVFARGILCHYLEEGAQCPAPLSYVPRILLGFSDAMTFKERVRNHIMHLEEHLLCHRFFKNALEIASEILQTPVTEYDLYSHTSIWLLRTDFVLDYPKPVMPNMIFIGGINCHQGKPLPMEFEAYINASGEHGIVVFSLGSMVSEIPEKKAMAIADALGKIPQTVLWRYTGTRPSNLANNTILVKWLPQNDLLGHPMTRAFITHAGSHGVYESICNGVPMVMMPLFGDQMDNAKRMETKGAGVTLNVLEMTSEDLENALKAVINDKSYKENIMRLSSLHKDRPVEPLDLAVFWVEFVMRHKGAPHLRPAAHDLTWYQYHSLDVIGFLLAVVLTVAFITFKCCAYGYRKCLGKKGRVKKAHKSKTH

[9] = read-out: IC50 (μM) / Epimagnolin A
[10] = read-out: IC50 (μM) / Yangambin

Structure (SMILES)	IC50 ([1]; read-out: IC50 (μM) / Eudesmin) [µM]	IC50 [2] [µM]	IC50 ([3]; read-out: IC50 (μM) / Eudesmin) [µM]	Ki [4] [µM]	IC50 [5] [µM]	Ki [6] [µM]	IC50 ([7]; read-out: IC50 (μM) / Eudesmin) [µM]	IC50 ([8]; read-out: IC50 (μM) / Eudesmin) [µM]	IC50 [1, 9] [µM]	IC50 [3, 10] [µM]	IC50 [7, 10] [µM]	IC50 [8, 9] [µM]
COc1ccc([C@H]2OC[C@H]3[C@@H]2CO[C@@H]3c2ccc(OC)c(OC)c2)cc1OC [Eudesmin]	196	> 200	26.6	39.8	> 200	25.7	24.3	173				
COc1cc([C@H]2OC[C@H]3[C@@H]2CO[C@@H]3c2cc(OC)c(OC)c(OC)c2)cc(OC)c1OC [Yangambin]		> 200		66.8	> 200	17.1			> 200	56.5	29.7	> 200
